Source: patent US11685726B2, “Pharmaceutical compositions of 6-(2-(2H-tetrazol-5-yl)ethyl)-6-fluorodecahydroisoquinoline-3-carboxylic acid and ester derivatives thereof” (Sea Pharmaceuticals LLC, priority 2020, dated 2023)

Tests used:
[1] = test system: Maximal Electroshock Seizure (MES) model in rats; assay: Maximal Electroshock Seizure (MES) model in rats; type: in vivo
From the text: Adult male Carworth Farms (CF-1) mice (25-35 g) or young male Sprague-Dawley (SD) rats (100-150 g) were obtained from Charles River Laboratories Inc (Wilmington Mass. USA). CF1 mice were typically used for the 6 Hz psychomotor seizure model (6 Hz model described in the section below) but could also be used for the Maximal electroshock seizure (MES) model if performed in mice (Maximal electroshock seizure model described in the section below). SD rats were typically used for MES model but could also be used for 6 Hz psychomotor model if performed in rats. Animals were allowed free access to food and water, except during testing periods. After delivery from supplier lab to the in vivo pharmacology testing lab, animals were allowed sufficient time to acclimate to housing conditions prior to testing. Animals were housed in plastic cages in rooms with controlled humidity, ventilation, and lighting (12 hours lights on and 12 hours darkness). The animals were housed and fed in a manner consistent with the recommendations in the “Guide for Care and Use of Laboratory Animals” (National Research Council), and in accordance with guidelines set by an Institutional Animal Care and Use Committee (IACUC). Animal experiments were conducted in a manner consistent with Animal Research: Reporting of In Vivo Experiments (ARRIVE) guidelines (UK) and were approved by an IACUC. […]

[2] = LCMS bioanalysis of compound levels in rat samples (plasma, CSF, brain) after administration; type: in vivo; details: lower limit of quantification 1 ng/ml
From the text: Measurement of Compound 1 or Compound 2 from rat samples (plasma, cerebral spinal fluid “CSF” or brain homogenate) was done by high resolution using a sensitive LCMS method.
Extracts of biological samples (either organic solvent precipitated or organic solvent extracted i. plasma or ii. CSF or iii. homogenates of whole brains from Compound 1 or Compound 2 treated rats) were subjected to LCMS and were compared to freshly prepared standard curves on exactly the same LCMS instrument. The standard curves were prepared of Compound 1 or Compound 2 at known concentrations dispensed (spiked) into rat plasma (supplied by Bioivt formerly Bioreclamation, Cat. No. RAT00PLK2Y2N, Bioivt, Hicksville N.Y. USA) as Sprague Dawley male rat plasma prepared by collection of blood into potassium-EDTA “K2-EDTA” tubes, centrifuged and stored at −80 C until usage). […] The lower limit of quantification of Compound 1 or Compound 2 based on the conditions used was 1 ng/ml and the standard curve was linear to 5,000 ng/ml. […]
Acute administration of test compound 1 or test compound 2 by routes described (either PO, SC or IV) was done to rats and samples collected at the timepoints described for subsequent extraction, dissolution and quantitative LCMS bioanalysis. […]

compound levels in vivo by LCMS [2] | SMILES | MES Test Results (# rats protected from seizure/# rats tested) ([1]; 6 mg/kg S.C., 0.5 hours before corneal stimulus, SPHA formulation) | tolerability of treatment in MES study ([1]; rats, single acute systemic administration)
 | O=C(O)[C@@H]1C[C@H]2C[C@@](F)(CCc3nnn[nH]3)CC[C@H]2CN1 [Compound 1, (3S,4aS,6S,8aR)-6-fluoro-6-[2-(1H-1,2,3,4-tetrazol-5-yl)ethyl]-decahydroisoquinoline-3-carboxylic acid] | 6/6 | well tolerated
below limit of detection | O=C(O)[C@@H]1C[C@H]2CC(F)(CCc3nnn[nH]3)CC[C@H]2CN1 (stereo in doubt) [Compound 2, (3S,4aS,6R,8aR)-6-fluoro-6-[2-(1H-1,2,3,4-tetrazol-5-yl)ethyl]-decahydroisoquinoline-3-carboxylic acid] |  | 
